The term EC50 denotes the concentration at which the effect is half-maximal.

Each structure is given as a SMILES string.

This experiment deals with T1, human LPAR1 (Homo sapiens, UniProt Q92633).
T1 construct: host or cells: CHO-K1
T1 sequence (Q92633 whole entry): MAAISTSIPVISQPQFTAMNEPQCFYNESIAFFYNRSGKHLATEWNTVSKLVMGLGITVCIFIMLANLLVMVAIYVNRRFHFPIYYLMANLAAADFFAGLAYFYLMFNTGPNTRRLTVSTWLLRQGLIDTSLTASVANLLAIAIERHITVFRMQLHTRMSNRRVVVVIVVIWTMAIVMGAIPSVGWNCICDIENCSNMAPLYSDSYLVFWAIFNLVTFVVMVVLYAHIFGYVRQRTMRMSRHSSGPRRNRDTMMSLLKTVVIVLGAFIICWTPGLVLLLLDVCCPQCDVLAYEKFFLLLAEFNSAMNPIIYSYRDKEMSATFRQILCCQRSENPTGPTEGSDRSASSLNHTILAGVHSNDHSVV
In words: LPAR1 intracellular calcium mobilization assay (antagonist mode). The class given is cell-based. The note with it: CHO-K1 EDG2 cells expressing human LPAR1; 60 min pre-incubation with compound, then LPA 18:2 at EC80 (100 nM); FLIPR calcium signal. On the procedure:
In vitro LPAR1 activity was measured in an intracellular calcium mobilization assay.
CHO-K1 EDG2 cells (DiscoverX cat #93-0644C2) expressing human LPAR1 (NM_001401.3) were seeded in a total volume of 25 μL of Dulbecco's Modification of Eagle's Medium (DMEM) with 10% Fetal Bovine Serum, 1× PenStrepGlutamine, 300 ug/ml Hygromycin, and 800 ug/ml G418 into 384-well tissue culture plate (Grenier #781091) at 15,000 cells/well and incubated at 37° C. overnight. Prior to testing, 25 μL Calcium Loading Dye Component A (FLIPR Calcium 6 Assay Kit Molecular Device #R8190) and 2.5 mM Probenecid (Invitrogen #P36400, prepared fresh) in Hank's Balanced Salt Solution (Corning #21-023-CV), 20 mM HEPES (Corning #25-060-CI), 0.1% Bovine Serum Albumin (Sigma-Aldrich #A7906-500G) was add to the cells for 60 minutes at 37° C.
Agonist dose curves of LPA 18:2 (Avanti Polar Lipids cat #857138, 0.5 nM to 10 μM) were recorded to determine the LPA 18:2 EC80 for subsequent antagonist assays. For agonist dose curves, cells were removed from the incubator 2 hours after dye loading and transferred to the FLIPR Tetra instrument (Molecular Devices, San Jose, CA). Calcium mobilization was monitored for 5 min and 10 μL 6× LPA in HBSS/20 mM Hepes/0.1% bovine serum albumin (BSA) was added to the cells 5 seconds into the assay.
To determine the LPAR1 antagonist activity of test compounds, cells were pre-incubated with test compound at a dose range of 0.5 nM to 10 μM, followed by LPA at EC80 concentration (100 nM). After dye loading, cells were removed from the incubator and 0.3 μL of 200× antagonist was added. Cells were incubated for 60 minutes at 37° C. Antagonist activity was measured on a FLIPR Tetra. Calcium mobilization was monitored for 3.5 minutes and 10 μL 6× EC80 LPA in HBSS, 20 mM HEPES, and 0.1% BSA was added to the cells 5 seconds into the assay. Signal amplitude (Maximum minus minimum) values were plotted against log10 of antagonist concentration using Dose Response Tool (Gilead Sciences Inc.) to determine EC50.
To assess the antagonistic potential of exemplified compounds EC50 values were determined for Compounds 1 to 32 in the LPAR1 calcium mobilization assay. The compound numbers correspond to the compound numbers in Examples 1 to 33.
(In general: Calcium assays in cells follow changes in intracellular calcium, usually with a dye or a luminescent sensor.)
For `C[C@@H](OC(=O)Nc1c(-c2cnc3c(c2)OCC(=O)N3)nnn1C)c1cccnc1Cl` [Compound 8, (R)-1-(2-chloropyridin-3-yl)ethyl (1-methyl-4-(3-oxo-3,4-dihydro-2H-pyrido[3,2-b][1,4]oxazin-7-yl)-1H-1,2,3-triazol-5-yl)carbamate], the EC50 came to 765 nM. For `C[C@@H](OC(=O)Nc1c(-c2ccc3c(c2)COC(=O)N3)nnn1C)c1ccccc1Cl` [Compound 12, (R)-1-(2-chlorophenyl)ethyl(1-methyl-4-(2-oxo-1,4-dihydro-2H-benzo[d][1,3]-oxazin-6-yl)-1H-1,2,3-triazol-5-yl)-carbamate], the EC50 was determined as 218 nM. For `C[C@@H](OC(=O)Nc1c(-c2ccc3c(n2)OC(C(F)(F)F)C(=O)N3)nnn1C)c1cc(F)cnc1Cl` (stereo partly drawn) [Compound 30, (R)-1-(2-chloro-5-fluoropyridin-3-yl)ethyl (1-methyl-4-(2-oxo-3-(trifluoromethyl)-2,3-dihydro-1H-pyrido[2,3-b][1,4]oxazin-6-yl)-1H-1,2,3-triazol-5-yl)carbamate] the value was less than 5 nM; for `C[C@@H](OC(=O)Nc1c(-c2ccc3c(c2)CC(=O)N3)nnn1C)c1ccccc1Cl` [Compound 14, (R)-1-(2-chlorophenyl)ethyl(1-methyl-4-(2-oxoindolin-5-yl)-1H-1,2,3-triazol-5-yl)carbamate], 4160 nM; for `C[C@@H](OC(=O)Nc1c(-c2ccc3c(c2F)CCC(=O)N3)nnn1C)c1cccnc1Cl` [Compound 7, (R)-1-(2-chloropyridin-3-yl)ethyl (4-(5-fluoro-2-oxo-1,2,3,4-tetrahydroquinolin-6-yl)-1-methyl-1H-1,2,3-triazol-5-yl)carbamate], 1230 nM. `C[C@@H](OC(=O)Nc1c(-c2ccc3c(n2)OCC(=O)N3)nnn1C)c1cc(Cl)cnc1F` [Compound 4, (R)-1-(5-chloro-2-fluoropyridin-3-yl)-ethyl(1-methyl-4-(2-oxo-2,3-dihydro-1H-pyrido[2,3-b][1,4]-oxazin-6-yl)-1H-1,2,3-triazol-5-yl)-carbamate]: the EC50 came out at 118 nM. As for `Cn1nnc(-c2ccc3c(n2)OCC(=O)N3)c1NC(=O)O[C@H](CF)c1ccccc1` [Compound 5, (S)-2-fluoro-1-phenylethyl (1-methyl-4-(2-oxo-2,3-dihydro-1H-pyrido[2,3-b][1,4]-oxazin-6-yl)-1H-1,2,3-triazol-5-yl)-carbamate], the figure is 100 nM; as for `C[C@@H](OC(=O)Nc1c(-c2ccc3c(c2)C(C)(C)OC(=O)N3)nnn1C)c1cccnc1F` [Compound 9, (R)-1-(2-fluoropyridin-3-yl)ethyl (4-(4,4-dimethyl-2-oxo-1,4-dihydro-2H-benzo[d][1,3]oxazin-6-yl)-1-methyl-1H-1,2,3-triazol-5-yl)carbamate], 4610 nM; as for `C[C@@H](OC(=O)Nc1c(-c2ccc3c(n2)OC(c2ccccc2)C(=O)N3)nnn1C)c1cccnc1Cl` (stereo partly drawn) [Compound 27, (R)-1-(2-chloropyridin-3-yl)ethyl (1-methyl-4-(2-oxo-3-phenyl-2,3-dihydro-1H-pyrido[2,3-b][1,4]oxazin-6-yl)-1H-1,2,3-triazol-5-yl)carbamate], 135 nM. As for `C[C@@H](OC(=O)Nc1c(-c2ccc3c(n2)OCC(=O)N3)nnn1C)c1cccnc1Cl` [Compound 24, (R)-1-(2-chloropyridin-3-yl)ethyl (1-methyl-4-(2-oxo-2,3-dihydro-1H-pyrido[2,3-b][1,4]oxazin-6-yl)-1H-1,2,3-triazol-5-yl)carbamate], the EC50 came out at 123 nM.

`C[C@@H](OC(=O)Nc1c(-c2ccc3c(c2)OCC(=O)N3)nnn1C)c1ccccc1Cl` [Compound 13, (R)-1-(2-chlorophenyl)ethyl(1-methyl-4-(3-oxo-3,4-dihydro-2H-benzo[b][1,4]-oxazin-7-yl)-1H-1,2,3-triazol-5-yl)-carbamate]: the EC50 was 38 nM. Regarding `C[C@@H](OC(=O)Nc1c(-c2ccc3c(n2)OCC(=O)N3)nnn1C)c1cc(F)cnc1F` [Compound 3, (R)-1-(2,5-difluoropyridin-3-yl)ethyl(1-methyl-4-(2-oxo-2,3-dihydro-1H-pyrido-[2,3-b][1,4]oxazin-6-yl)-1H-1,2,3-triazol-5-yl)carbamate], the EC50 was 66 nM. On to `C[C@@H](OC(=O)Nc1c(-c2ccc3[nH]c(=O)ccc3c2)nnn1C)c1ccccc1Cl` [Compound 15, (R)-1-(2-chlorophenyl)ethyl(1-methyl-4-(2-oxo-1,2-dihydroquinolin-6-yl)-1H-1,2,3-triazol-5-yl)carbamate], for which the EC50 amounted to 565 nM. As for `CCC1Oc2nc(-c3nnn(C)c3NC(=O)O[C@H](C)c3cccnc3Cl)ccc2NC1=O` (stereo partly drawn) [Compound 26, (R)-1-(2-chloropyridin-3-yl)ethyl (4-(3-ethyl-2-oxo-2,3-dihydro-1H-pyrido[2,3-b][1,4]oxazin-6-yl)-1-methyl-1H-1,2,3-triazol-5-yl)carbamate], the EC50 was 3780 nM. As to `C[C@@H](OC(=O)Nc1c(-c2cc3c(cc2F)NC(=O)CC3)nnn1C)c1cccnc1Cl` [Compound 6, [(1R)-1-(2-chloro-3-pyridyl)ethyl] N-[5-(7-fluoro-2-oxo-3,4-dihydro-1H-quinolin-6-yl)-3-methyl-triazol-4-yl]carbamate], the EC50 was found to be 115 nM.

As for `C[C@@H](OC(=O)Nc1c(-c2cc(F)c3c(c2)CCC(=O)N3)nnn1C)c1cccnc1Cl` [Compound 29, (R)-1-(2-chloropyridin-3-yl)ethyl (4-(8-fluoro-2-oxo-1,2,3,4-tetrahydroquinolin-6-yl)-1-methyl-1H-1,2,3-triazol-5-yl)carbamate], the EC50 worked out at 5 nM. Turning to `C[C@@H](OC(=O)Nc1c(-c2ccc3c(n2)OC(C)(C)C(=O)N3)nnn1C)c1cccnc1Cl` [Compound 21, (R)-1-(2-chloropyridin-3-yl)ethyl (4-(3,3-dimethyl-2-oxo-2,3-dihydro-1H-pyrido[2,3-b][1,4]oxazin-6-yl)-1-methyl-1H-1,2,3-triazol-5-yl)carbamate], the EC50 was 2280 nM. As to `C[C@@H](OC(=O)Nc1c(-c2ccc3c(c2)CCC(=O)N3)nnn1C)c1cc(F)cnc1Cl` [Compound 20, (R)-1-(2-chloro-5-fluoropyridin-3-yl)ethyl (1-methyl-4-(2-oxo-1,2,3,4-tetrahydroquinolin-6-yl)-1H-1,2,3-triazol-5-yl)carbamate], the EC50 was found to be 118 nM. Take `C[C@@H](OC(=O)Nc1c(-c2ccc3c(c2)COC(=O)N3)nnn1C)c1cccnc1Cl` [Compound 16, (R)-1-(2-chloropyridin-3-yl)ethyl (1-methyl-4-(2-oxo-1,4-dihydro-2H-benzo[d][1,3]-oxazin-6-yl)-1H-1,2,3-triazol-5-yl)-carbamate]: the EC50 is 525 nM. As for `CC(OC(=O)Nc1c(-c2ccc3c(n2)OCC(=O)N3)nnn1C)c1cc(F)ncc1F` (stereo not drawn) [Compound 2, 1-(2,5-difluoropyridin-4-yl)ethyl(1-methyl-4-(2-oxo-2,3-dihydro-1H-pyrido[2,3-b][1,4]-oxazin-6-yl)-1H-1,2,3-triazol-5-yl)carbamate], the EC50 was found to be 1980 nM. In the case of `C[C@@H](OC(=O)Nc1c(-c2ccc3c(n2)OCC(=O)N3)nnn1C)c1cc(F)cnc1Cl` [Compound 1, (R)-1-(2-chloro-5-fluoropyridin-3-yl)ethyl (1-methyl-4-(2-oxo-2,3-dihydro-1H-pyrido[2,3-b][1,4]oxazin-6-yl)-1H-1,2,3-triazol-5-yl)carbamate], the EC50 is 85 nM. Take `CC1Oc2nc(-c3nnn(C)c3NC(=O)O[C@H](C)c3cc(F)cnc3Cl)ccc2NC1=O` (stereo partly drawn) [Compound 31, (R)-1-(2-chloro-5-fluoropyridin-3-yl)ethyl (1-methyl-4-(3-methyl-2-oxo-2,3-dihydro-1H-pyrido[2,3-b][1,4]oxazin-6-yl)-1H-1,2,3-triazol-5-yl)carbamate]: the EC50 is less than 5 nM. For `C[C@@H](OC(=O)Nc1c(-c2ccc3c(c2)OCC(=O)N3)nnn1C)c1cccnc1Cl` [Compound 18, (R)-1-(2-chloropyridin-3-yl)ethyl (1-methyl-4-(3-oxo-3,4-dihydro-2H-benzo[b][1,4]-oxazin-7-yl)-1H-1,2,3-triazol-5-yl)-carbamate], the EC50 is 265 nM. Turning to `CC1Oc2nc(-c3nnn(C)c3NC(=O)O[C@H](C)c3cccnc3Cl)ccc2NC1=O` (stereo partly drawn) [Compound 22, (R)-1-(2-chloropyridin-3-yl)ethyl (1-methyl-4-(3-methyl-2-oxo-2,3-dihydro-1H-pyrido[2,3-b][1,4]oxazin-6-yl)-1H-1,2,3-triazol-5-yl)carbamate], the EC50 was determined as 86 nM.

The values above are taken from patent US12139474B2, “LPA receptor antagonists and uses thereof” (Gilead Sciences, Inc., priority 2020, dated 2024).
